The results in this text go back to patent publication US20230212120A1, “SMALL MOLECULE INHIBITORS OF GRK5 AND GRK5 SUBFAMILY MEMBERS AND USES THEREOF” (The Regents of the University of Michigan, priority 2020, published 2023).

The target in one data set is PKA (Homo sapiens, UniProt P17612). The experiment in a line: PKA inhibition assay (ADP-Glo). The format is biochemical. The protocol:
The PKA inhibition assays were performed with the ADP-Glo system (Promega Corporation) according to the manufactory's instruction. […] After the initial reaction, ADP-Glo reagent was added to the reaction and allowed to incubate for an additional 40 min. Lastly, the kinase detection reagent was added and allowed to incubate for 30 min, and the luminescence was measured with a FlexStation 3 Multi-mode Microplate Reader (Molecular Devices). All data was analyzed in the same way as GRK inhibition assay. Experiments were performed three times in duplicate.
Standard control compounds are run during each assay to assess consistency across time, experimenters, and subtle changes in assay conditions that are sometimes required to keep some of the compounds soluble and disperse (such as through addition of DDM or 3% DMSO). Paroxetine were used as controls for GRK2 and PKA, and CCG215022 for GRK5.

A further data set has as its target T1, bovine GRK2 (Bos taurus, UniProt P21146).
T1 sequence (P21146 1-689): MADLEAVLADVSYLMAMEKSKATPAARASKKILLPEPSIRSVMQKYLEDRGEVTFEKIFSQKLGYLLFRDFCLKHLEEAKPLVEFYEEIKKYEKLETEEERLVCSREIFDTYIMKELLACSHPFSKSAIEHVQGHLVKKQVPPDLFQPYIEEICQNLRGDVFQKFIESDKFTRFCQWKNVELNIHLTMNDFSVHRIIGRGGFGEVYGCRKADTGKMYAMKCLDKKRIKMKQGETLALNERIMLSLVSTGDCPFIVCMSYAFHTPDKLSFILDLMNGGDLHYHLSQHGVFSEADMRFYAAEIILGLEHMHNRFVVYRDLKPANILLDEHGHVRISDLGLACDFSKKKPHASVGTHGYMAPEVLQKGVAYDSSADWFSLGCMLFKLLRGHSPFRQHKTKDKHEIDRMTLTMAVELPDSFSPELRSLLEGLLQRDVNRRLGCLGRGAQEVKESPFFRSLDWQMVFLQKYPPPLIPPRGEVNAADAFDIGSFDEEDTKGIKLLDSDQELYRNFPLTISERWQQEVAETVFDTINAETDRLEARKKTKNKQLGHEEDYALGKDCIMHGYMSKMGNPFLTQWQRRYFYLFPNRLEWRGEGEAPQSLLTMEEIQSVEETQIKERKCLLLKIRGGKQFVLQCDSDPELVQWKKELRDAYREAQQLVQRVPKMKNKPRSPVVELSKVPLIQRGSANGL
The experiment in a line: radiometric GRK2 inhibition assay (tubulin phosphorylation).

Data set [1] is described as follows: Thermodynamic solubility (Analiza Inc.). The format is physicochemical. To be noted: for solubility thermodynamic / pH After Assay: Water; for solubility thermodynamic: n=1; for pH After Assay: solubility assay. The source says: Experimental data collected by Analiza Inc. Experimental values represent an average of n=1 experiments.
Where [2] appears, read: read-out: GRK2 IC50, Table 2, μM ± SD.
[3] abbreviates: read-out: GRK2 IC50, Table 1, μM ± SD.

Molecules are shown by their SMILES. Converted amounts (≈) assume the structure as drawn. “And” between values parts separate entries of the source, which are not always exact repeats. Identical values can stand only once. Like-named read-outs stand apart in the source and are kept apart here. Bounds are passed on as bounds.

With `Cc1[nH]c(/C=C2\C(=O)Nc3ccc(C(=O)N[C@H](C)c4cccc(Cl)c4)cc32)c(C)c1NC(=O)CCl` [Compound 9m, (R,Z)-3-((4-(2-chloroacetamido)-3,5-dimethyl-1H-pyrrol-2-yl)methylene)-N-(1-(3-chlorophenyl)ethyl)-2-oxoindoline-5-carboxamide], the IC50 against PKA (Table 2, μM ± SD) is more than 250 µM; on bovine GRK2 (setting [2]), 19 ± 10 µM. In the case of `CCN(CC)CCNC(=O)c1c(C)[nH]c(/C=C2\C(=O)Nc3ccc(C(=O)N[C@@H](C)c4ccccc4)cc32)c1C` [Compound 5b, (S,Z)-3-((4-((2-(diethylamino)ethyl)carbamoyl)-3,5-dimethyl-1H-pyrrol-2-yl)methylene)-2-oxo-N-(1-phenylethyl)indoline-5-carboxamide], the IC50 on bovine GRK2 (setting [3]) is 44 ± 18 µM. On the same count and under the same terms, the result for `C=CS(=O)(=O)Nc1c(C)[nH]c(/C=C2\C(=O)Nc3ccc(C(=O)N[C@H](C)c4ccccc4)cc32)c1C` [Compound 9c, (R,Z)-3-((3,5-dimethyl-4-(vinylsulfonamido)-1H-pyrrol-2-yl)methylene)-2-oxo-N-(1-phenylethyl)indoline-5-carboxamide] reads 280 ± 110 µM. For `Cc1[nH]c(/C=C2\C(=O)Nc3ccc(C(=O)N[C@H](C)c4ccccc4)cc32)c(C)c1NC(=O)C1CO1` (stereo partly drawn) [Compound 10l, (Z)-3-((3,5-dimethyl-4-(oxirane-2-carboxamido)-1H-pyrrol-2-yl)methylene)-2-oxo-N—((R)-1-phenylethyl)indoline-5-carboxamide], the half-maximal inhibitory concentration (IC50) on bovine GRK2 is more than 250 µM.

Regarding `Cc1[nH]c(/C=C2\C(=O)Nc3ccc(C(=O)N[C@H](C)c4ccccn4)cc32)c(C)c1NC(=O)CCl` [Compound 9l, (R,Z)-3-((4-(2-chloroacetamido)-3,5-dimethyl-1H-pyrrol-2-yl)methylene)-2-oxo-N-(1-(pyridin-2-yl)ethyl)indoline-5-carboxamide], the IC50 at bovine GRK2 (setting [2]) came out at 9.6 ± 5 µM. Moreover, in data set [1], the solubility (thermodynamic) worked out at 262 µM (≈ 125 µg/mL) and the “pH After Assay” value turned out to be 4. In turn, `Fc1ccc([C@@H]2CCNC[C@H]2COc2ccc3c(c2)OCO3)cc1` [paroxetine, reference compound] had an IC50 against PKA (Table 1, μM ± SD) of 850 ± 400 µM.

On to `Cc1[nH]c(/C=C2\C(=O)Nc3ccc(C(=O)N[C@H](C)c4ccccc4)cc32)c(C)c1NC(=O)CCl` [Compound 9e, (R,Z)-3-((4-(2-chloroacetamido)-3,5-dimethyl-1H-pyrrol-2-yl)methylene)-2-oxo-N-(1-phenylethyl)indoline-5-carboxamide], for which the IC50 at PKA (Table 1, μM ± SD) is more than 250 µM; on bovine GRK2 (setting [3]), 350 ± 100 µM. The “pH After Assay” value in data set [1] was 5. Besides, the thermodynamic solubility in data set [1] (thermodynamic from solid) was 75.1 µM and 35.7 µg/mL. For `C=CCNC(=O)c1c(C)[nH]c(/C=C2\C(=O)Nc3ccc(C(=O)N[C@H](C)c4ccccc4)cc32)c1C` [Compound 5d, (R,Z)-3-((4-(allylcarbamoyl)-3,5-dimethyl-1H-pyrrol-2-yl)methylene)-2-oxo-N-(1-phenylethyl)indoline-5-carboxamide], the IC50 on PKA (Table 1, μM ± SD) was more than 250 µM; at bovine GRK2 (setting [3]) it was 22 ± 10 µM. Regarding `Cc1[nH]c(/C=C2\C(=O)Nc3ccc(C(=O)N[C@H](C)c4ccccc4)cc32)c(C)c1[N+](=O)[O-]` [Compound 7a, (R,Z)-3-((3,5-dimethyl-4-nitro-1H-pyrrol-2-yl)methylene)-2-oxo-N-(1-phenylethyl)indoline-5-carboxamide], at bovine GRK2 (setting [3]), the IC50 was found to be 7.2 ± 3 µM. `Cc1[nH]c(/C=C2\C(=O)Nc3ccc(C(=O)NC4(c5ccccc5)COC4)cc32)c(C)c1NC(=O)CCl` [Compound 9t, (Z)-3-((4-(2-chloroacetamido)-3,5-dimethyl-1H-pyrrol-2-yl)methylene)-2-oxo-N-(3-phenyloxetan-3-yl)indoline-5-carboxamide]: the IC50 came out at 69 ± 10 µM at PKA (Table 2, μM ± SD) and 15 ± 7 µM on bovine GRK2 (setting [2]). For `Cc1[nH]c(/C=C2\C(=O)Nc3ccc(C(=O)N[C@H](C)c4ccc(Cl)cc4)cc32)c(C)c1NC(=O)CCl` [Compound 9o, (R,Z)-3-((4-(2-chloroacetamido)-3,5-dimethyl-1H-pyrrol-2-yl)methylene)-N-(1-(4-chlorophenyl)ethyl)-2-oxoindoline-5-carboxamide], at bovine GRK2 (setting [2]), the IC50 amounted to 0.7 ± 0.2 µM. For the same compound, the “pH After Assay” value in data set [1] amounted to 4. Further, the solubility (thermodynamic) in data set [1] (thermodynamic from solid) was 205 µM and 105 µg/mL.

With `Cc1[nH]c(/C=C2\C(=O)Nc3ccc(C(=O)N[C@H](C)c4ccncc4)cc32)c(C)c1NC(=O)CCl` [Compound 9k, (R,Z)-3-((4-(2-chloroacetamido)-3,5-dimethyl-1H-pyrrol-2-yl)methylene)-2-oxo-N-(1-(pyridin-4-yl)ethyl)indoline-5-carboxamide], the IC50 on bovine GRK2 (setting [2]) was 1.7 ± 2 µM. Further, the “aqueous solubility relative to 9e” value in data set [1] (compared to 9e) is reported as “less than 2 fold”.

Consider `Cc1[nH]c(/C=C2\C(=O)Nc3ccc(C(=O)N[C@H](C)c4ccccc4)cc32)c(C)c1NC(=O)C(O)CCl` (stereo partly drawn) [Compound 9h, (Z)-3-((4-(3-chloro-2-hydroxypropanamido)-3,5-dimethyl-1H-pyrrol-2-yl)methylene)-2-oxo-N—((R)-1-phenylethyl)indoline-5-carboxamide], for which the IC50 at PKA (Table 1, μM ± SD) was more than 250 µM; at bovine GRK2 (setting [3]), 6.7 ± 5 µM. Regarding `Cc1[nH]c(/C=C2\C(=O)Nc3ccc(C(=O)N[C@H](C)c4ccccc4)cc32)c(C)c1NC(=O)/C(C#N)=C/C(C)(C)C` [Compound 10a, (Z)-3-((4-((E)-2-cyano-4,4-dimethylpent-2-enamido)-3,5-dimethyl-1H-pyrrol-2-yl)methylene)-2-oxo-N—((R)-1-phenylethyl)indoline-5-carboxamide], the IC50 at bovine GRK2 (setting [3]) was found to be 120 ± 80 µM. Take `CCN(CC)CCNC(=O)c1c(C)[nH]c(/C=C2\C(=O)Nc3ccc(C(=O)N[C@H](C)c4ccccc4)cc32)c1C` [Compound 5a, (R,Z)-3-((4-((2-(diethylamino)ethyl)carbamoyl)-3,5-dimethyl-1H-pyrrol-2-yl)methylene)-2-oxo-N-(1-phenylethyl)indoline-5-carboxamide]: the IC50 is more than 250 µM at PKA (Table 1, μM ± SD) and 1.1 ± 0.7 µM on bovine GRK2 (setting [3]). Turning to `C=CC(=O)Nc1c(C)[nH]c(/C=C2\C(=O)Nc3ccc(C(=O)N[C@H](C)c4ccccc4)cc32)c1C` [Compound 9b, (R,Z)-3-((4-acrylamido-3,5-dimethyl-1H-pyrrol-2-yl)methylene)-2-oxo-N-(1-phenylethyl)indoline-5-carboxamide], the IC50 at bovine GRK2 (setting [3]) amounted to 87 ± 30 µM. As to `Cc1[nH]c(/C=C2\C(=O)Nc3ccc(C(=O)N[C@H](C)c4ccccc4)cc32)c(C)c1NC(=O)/C=C/CN(C)C` [Compound 9f, (Z)-3-((4-((E)-4-(dimethylamino)but-2-enamido)-3,5-dimethyl-1H-pyrrol-2-yl)methylene)-2-oxo-N—((R)-1-phenylethyl)indoline-5-carboxamide], at bovine GRK2 (setting [3]), the IC50 is 17 ± 10 µM. Moreover, the “pH After Assay” value in data set [1] worked out at 5. For the same compound, in data set [1] (thermodynamic from solid), the solubility (thermodynamic) is 125 µM and 64 µg/mL. For `CC1=C(C(=O)Nc2ccc3[nH]ncc3c2)C(c2ccc(F)c(C(=O)NCc3ccccn3)c2)NC(=O)N1` (stereo not shown) [CCG 215022, reference compound], on PKA (Table 1, μM ± SD), the IC50 is more than 250 µM.

Turning to `Cc1[nH]c(/C=C2\C(=O)Nc3ccc(C(=O)N[C@H](C)c4ccc(F)cc4)cc32)c(C)c1NC(=O)CBr` [Compound 9p, (R,Z)-3-((4-(2-bromoacetamido)-3,5-dimethyl-1H-pyrrol-2-yl)methylene)-N-(1-(4-fluorophenyl)ethyl)-2-oxoindoline-5-carboxamide], the IC50 on bovine GRK2 (setting [2]) amounted to 3.6 ± 2 µM.
